Measurements as given in patent US20240158370A1, “CK1 alpha AND DUAL CK1 alpha / GSPT1 DEGRADING COMPOUNDS” (Innovo Therapeutics, Inc., priority 2022, published 2024).

What was measured:
CK1α = molecular target: T1, CK1α (Homo sapiens, UniProt P48729+Q96SW2); experiment: HiBiT degradation assay, CK1α, Procedure A; type: cell-based; conditions: six hours incubation
T1 construct: CSNK1A1-HiBit KI HEK293(LgBit) Cells; host or cells: HEK293(LgBit) knock-in cells
Procedure: (§1) Compounds were spotted onto Cornin 384-Well, Cell Culture-Treated, Flat-Bottom, Low Flange Microplate (Fisher Scientific, Catalog #07-201-013) using a Tecan D300e digital dispenser. Ten-point dose response curves spanning from 10 μM to 0.005 μM with a 0.1% DMSO tolerance were used.
(§2) Cells were dissociated from tissue 182 cm^2 Tissue Culture Flask (CellTreat Catalog #229351) by washing the cells with PBS (Fisher Scientific Catalog #BP3994) followed by dissociation with Trypsin-EDTA (0.25%) (Thermo Scientific Catalog #25200056). Trysin was neutralized and cells were resuspended with DMEM+10% FBS. Cells were centrifuged for 5 minutes at 1200 RPMs. Cell culture media was aspirated off and cells were resuspended with DMEM+10% FBS. Cell density was determined using a Denovix CellDrop BF cell counter. Cell density was adjusted to 1×10^6 cells/ml. 40 μl of cells was added to compound treated tissue culture plates and incubated for six hours at 37° C. After six hours, cell culture plates were removed from tissue culture incubator and cooled to room temperature. 40 μl of Nano-GloHiBiT Lytic Detection Reagent (Promega, Catalog #N3040) was added to each well. Plates were placed on an orbital shaker (600 rpm) for 20 minutes. Luminescence was measured using an Envsion plate reader (Perkin Elmer). DC50 curves and Ymin were generated using a 4-parameter curve fit with GraphPad Prism software (Prism Corporation).
(§3) Results from the HiBiT assay (DC50 (nM) and Ymin (% remaining)) are shown below. All CK1α data was generated according to Procedure A. GSPT1 data for Examples 1-600, 603-620 and 703-705 was generated according to Procedure A. GSPT1 data for Examples 601, 621-702 and 706-735 was generated according to Procedure B.

GSPT1 = GSPT1 (Homo sapiens, UniProt P15170+Q96SW2); experiment: HiBiT degradation assay, GSPT1, Procedure A; type: cell-based; design: HiBit-GSPT1 KI HEK293(LgBit) Cells; host or cells: HEK293(LgBit) knock-in cells; conditions: six hours incubation
GSPT1, sequence (P15170 whole entry): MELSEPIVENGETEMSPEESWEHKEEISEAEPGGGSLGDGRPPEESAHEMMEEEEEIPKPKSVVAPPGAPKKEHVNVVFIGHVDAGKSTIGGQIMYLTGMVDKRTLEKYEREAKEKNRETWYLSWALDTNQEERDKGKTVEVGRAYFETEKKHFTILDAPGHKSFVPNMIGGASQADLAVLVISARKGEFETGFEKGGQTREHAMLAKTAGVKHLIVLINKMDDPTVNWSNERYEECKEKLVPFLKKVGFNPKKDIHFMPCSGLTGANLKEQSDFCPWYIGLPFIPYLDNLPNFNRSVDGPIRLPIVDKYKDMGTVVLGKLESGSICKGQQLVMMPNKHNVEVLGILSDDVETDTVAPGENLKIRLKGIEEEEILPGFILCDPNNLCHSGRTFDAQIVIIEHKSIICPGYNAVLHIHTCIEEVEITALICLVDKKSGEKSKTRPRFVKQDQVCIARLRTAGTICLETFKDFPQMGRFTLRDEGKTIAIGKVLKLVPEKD
GSPT1, sequence (Q96SW2 whole entry): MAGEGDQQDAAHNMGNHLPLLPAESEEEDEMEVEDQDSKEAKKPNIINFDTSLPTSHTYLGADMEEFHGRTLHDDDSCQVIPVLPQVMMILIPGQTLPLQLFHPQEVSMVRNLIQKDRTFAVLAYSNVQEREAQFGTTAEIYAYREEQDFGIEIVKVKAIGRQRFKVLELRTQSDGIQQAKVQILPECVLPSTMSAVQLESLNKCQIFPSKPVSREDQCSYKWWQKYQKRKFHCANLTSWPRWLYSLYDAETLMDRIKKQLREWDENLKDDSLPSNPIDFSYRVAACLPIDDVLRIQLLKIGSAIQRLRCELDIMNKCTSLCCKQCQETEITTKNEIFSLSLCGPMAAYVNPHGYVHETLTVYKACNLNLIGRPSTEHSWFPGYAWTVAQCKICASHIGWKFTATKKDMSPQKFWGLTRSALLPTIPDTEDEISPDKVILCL
GSPT1, sequence (Q16531 whole entry partner): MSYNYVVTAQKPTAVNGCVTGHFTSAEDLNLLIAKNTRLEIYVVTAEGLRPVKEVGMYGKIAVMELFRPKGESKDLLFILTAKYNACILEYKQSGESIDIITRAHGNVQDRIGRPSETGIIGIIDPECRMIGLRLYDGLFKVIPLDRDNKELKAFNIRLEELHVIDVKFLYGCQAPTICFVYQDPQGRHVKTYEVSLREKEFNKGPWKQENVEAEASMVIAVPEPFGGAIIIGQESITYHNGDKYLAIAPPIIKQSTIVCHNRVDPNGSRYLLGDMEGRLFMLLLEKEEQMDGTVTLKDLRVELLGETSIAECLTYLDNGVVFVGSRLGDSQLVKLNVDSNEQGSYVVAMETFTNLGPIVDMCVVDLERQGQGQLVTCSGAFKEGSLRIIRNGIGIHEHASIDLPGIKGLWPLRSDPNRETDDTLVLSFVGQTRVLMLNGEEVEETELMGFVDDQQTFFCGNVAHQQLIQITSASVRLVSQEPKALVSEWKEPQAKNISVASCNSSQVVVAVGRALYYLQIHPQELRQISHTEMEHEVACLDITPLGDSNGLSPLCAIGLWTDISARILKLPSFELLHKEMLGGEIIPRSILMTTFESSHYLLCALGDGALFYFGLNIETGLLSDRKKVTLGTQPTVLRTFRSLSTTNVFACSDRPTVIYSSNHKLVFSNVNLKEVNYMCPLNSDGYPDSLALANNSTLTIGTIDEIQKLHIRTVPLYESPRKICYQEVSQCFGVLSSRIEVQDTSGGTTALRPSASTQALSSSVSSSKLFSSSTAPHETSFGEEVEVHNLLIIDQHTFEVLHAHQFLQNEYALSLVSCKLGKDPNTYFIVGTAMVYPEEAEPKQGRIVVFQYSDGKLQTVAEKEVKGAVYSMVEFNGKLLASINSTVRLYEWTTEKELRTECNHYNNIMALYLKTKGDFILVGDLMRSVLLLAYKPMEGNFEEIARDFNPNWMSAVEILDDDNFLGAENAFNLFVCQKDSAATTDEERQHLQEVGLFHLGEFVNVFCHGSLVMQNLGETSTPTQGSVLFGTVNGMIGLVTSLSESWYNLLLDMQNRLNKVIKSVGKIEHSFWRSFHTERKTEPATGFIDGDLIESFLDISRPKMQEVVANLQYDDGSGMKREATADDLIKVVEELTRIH
Procedure: as §1, §2, §3

T1 sequence (P48729 whole entry): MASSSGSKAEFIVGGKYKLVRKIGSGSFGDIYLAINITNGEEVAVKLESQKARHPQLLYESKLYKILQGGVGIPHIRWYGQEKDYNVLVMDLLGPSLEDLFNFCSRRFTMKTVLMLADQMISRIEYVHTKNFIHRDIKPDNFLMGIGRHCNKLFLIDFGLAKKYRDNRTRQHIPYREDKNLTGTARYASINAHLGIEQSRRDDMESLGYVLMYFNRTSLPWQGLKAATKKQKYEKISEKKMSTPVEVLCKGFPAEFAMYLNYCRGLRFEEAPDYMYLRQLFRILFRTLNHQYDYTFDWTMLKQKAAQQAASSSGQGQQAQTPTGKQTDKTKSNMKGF
T1 sequence (Q96SW2 whole entry): as the sequence (Q96SW2 whole entry) above
T1 sequence (Q16531 whole entry partner): as the sequence (Q16531 whole entry partner) above

SMILES | CK1α Ymin (CK1α) | DC50 (CK1α) [nM] | DC50 (GSPT1) [nM] | GSPT1 Ymin (GSPT1)
Cc1noc(-c2ccccc2)c1-c1ccc2c(c1)CN(C1CCC(=O)NC1=O)C2=O (stereo not drawn) [Example 29, 3-(5-(3-Methyl-5-phenylisoxazol-4-yl)-1-oxoisoindolin-2-yl)piperidine-2,6-dione] | F (F = >75-100% remaining) | ≥ 25 | ≥ 25 | F (F = >75-100% remaining)
Cc1n[nH]c(-c2ccccc2)c1-c1ccc2c(c1)CN(C1CCC(=O)NC1=O)C2=O (stereo not drawn) [Example 30, 3-(5-(3-Methyl-5-phenyl-1H-pyrazol-4-yl)-1-oxoisoindolin-2-yl) piperidine-2,6-dione] | E (E = >25-75% remaining) | ≥ 25 | ≥ 25 | F (F = >75-100% remaining)
O=C1CCC(N2Cc3cc(-c4sncc4-c4ccccc4)ccc3C2=O)C(=O)N1 (stereo not drawn) [Example 31, 3-(1-Oxo-5-(4-phenylisothiazol-5-yl)isoindolin-2-yl) piperidine-2,6-dione] | E (E = >25-75% remaining) | ≥ 25 | ≥ 25 | F (F = >75-100% remaining)
Cn1nc(-c2ccccc2)cc1-c1ccc2c(c1)CN(C1CCC(=O)NC1=O)C2=O (stereo not drawn) [Example 35, 3-(5-(1-Methyl-3-phenyl-1H-pyrazol-5-yl)-1-oxoisoindolin-2-yl)piperidine-2,6-dione] | F (F = >75-100% remaining) | ≥ 25 | ≥ 25 | F (F = >75-100% remaining)
O=C1CCC(N2Cc3cc(-c4c[nH]nc4-c4ccncc4)ccc3C2=O)C(=O)N1 (stereo not drawn) [Example 38, 3-(1-Oxo-5-(3-(pyridin-4-yl)-1H-pyrazol-4-yl)isoindolin-2-yl)piperidine-2,6-dione] | E (E = >25-75% remaining) | ≥ 25 | ≥ 25 | F (F = >75-100% remaining)
O=C1CCC(N2Cc3cc(-c4c[nH]nc4C4CC4)ccc3C2=O)C(=O)N1 (stereo not drawn) [Example 47, 3-(5-(3-Cyclopropyl-1H-pyrazol-4-yl)-1-oxoisoindolin-2-yl)piperidine-2,6-dione] | E (E = >25-75% remaining) | ≥ 25 | ≥ 25 | F (F = >75-100% remaining)
CNC(=O)c1ccc(-c2c(-c3ccc4c(c3)CN(C3CCC(=O)NC3=O)C4=O)cnn2C)cc1 (stereo not drawn) [Example 56] | D (D = >10- 25% remaining) | ≥ 25 | ≥ 25 | F (F = >75-100% remaining)
Cn1ncc(-c2ccc3c(c2)CN(C2CCC(=O)NC2=O)C3=O)c1-c1ccc(C#N)cc1 (stereo not drawn) [Example 57] | E (E = >25-75% remaining) | ≥ 25 | ≥ 25 | F (F = >75-100% remaining)
Cn1ncc(-c2ccc3c(c2)CN(C2CCC(=O)NC2=O)C3=O)c1-c1ccc(F)c(C#N)c1 (stereo not drawn) [Example 58] | E (E = >25-75% remaining) | ≥ 25 | ≥ 25 | F (F = >75-100% remaining)
Cn1ncc(-c2ccc3c(c2)CN(C2CCC(=O)NC2=O)C3=O)c1-c1ccc(OCc2ccccc2)cc1 (stereo not drawn) [Example 61] | E (E = >25-75% remaining) | < 25 | ≥ 25 | F (F = >75-100% remaining)
Cn1ncc(-c2ccc3c(c2)CN(C2CCC(=O)NC2=O)C3=O)c1-c1ccc(N2CCOCC2)cc1 (stereo not drawn) [Example 62] | D (D = >10- 25% remaining) | < 25 | ≥ 25 | F (F = >75-100% remaining)
Cn1ncc(-c2ccc3c(c2)CN(C2CCC(=O)NC2=O)C3=O)c1-c1ccc(C(F)(F)F)cc1 (stereo not drawn) [Example 63] | E (E = >25-75% remaining) | < 25 | ≥ 25 | F (F = >75-100% remaining)
COc1ccc(-c2c(-c3ccc4c(c3)CN(C3CCC(=O)NC3=O)C4=O)cnn2C)c(Cl)c1 (stereo not drawn) [Example 65] | D (D = >10- 25% remaining) | < 25 | ≥ 25 | F (F = >75-100% remaining)
Cc1sccc1-c1c(-c2ccc3c(c2)CN(C2CCC(=O)NC2=O)C3=O)cnn1C (stereo not drawn) [Example 66] | E (E = >25-75% remaining) | ≥ 25 | ≥ 25 | F (F = >75-100% remaining)
Cn1ncc(-c2ccc3c(c2)CN(C2CCC(=O)NC2=O)C3=O)c1-c1ccccc1F (stereo not drawn) [Example 67] | E (E = >25-75% remaining) | < 25 | ≥ 25 | F (F = >75-100% remaining)
Cn1ncc(-c2ccc3c(c2)CN(C2CCC(=O)NC2=O)C3=O)c1-c1ccc(Cl)s1 (stereo not drawn) [Example 68] | D (D = >10- 25% remaining) | < 25 | ≥ 25 | F (F = >75-100% remaining)

More lines, now with the values ahead:

CK1α Ymin (CK1α) | DC50 (CK1α) [nM] | DC50 (GSPT1) [nM] | GSPT1 Ymin (GSPT1) | SMILES
E (E = >25-75% remaining) | < 25 | ≥ 25 | E (E = >25-75% remaining) | O=C1CCC(N2Cc3cc(-n4nccc4-c4ccccc4)ccc3C2=O)C(=O)N1 (stereo not drawn) [Example 33, 3-(1-Oxo-5-(5-phenyl-1H-pyrazol-1-yl)isoindolin-2-yl)piperidine-2,6-dione]
E (E = >25-75% remaining) | < 25 | ≥ 25 | F (F = >75-100% remaining) | O=C1CCC(N2Cc3cc(-c4nc(-c5ccccc5)co4)ccc3C2=O)C(=O)N1 (stereo not drawn) [Example 42, 3-(1-Oxo-5-(4-phenyloxazol-2-yl)isoindolin-2-yl)piperidine-2,6-dione]
C (C = 0-10% remaining) | < 25 | ≥ 25 | F (F = >75-100% remaining) | Cn1c(C2CC2)nc(-c2ccc3c(c2)CN(C2CCC(=O)NC2=O)C3=O)c1-c1cccnc1 (stereo not drawn) [Example 44, 3-(5-(2-Cyclopropyl-1-methyl-5-(pyridin-3-yl)-1H-imidazol-4-yl)-1-oxoisoindolin-2-yl)piperidine-2,6-dione]
C (C = 0-10% remaining) | < 25 | ≥ 25 | F (F = >75-100% remaining) | Cn1c(C2CC2)nc(-c2ccc3c(c2)CN(C2CCC(=O)NC2=O)C3=O)c1-c1ccncc1 (stereo not drawn) [Example 45, 3-(5-(2-Cyclopropyl-1-methyl-5-(pyridin-4-yl)-1H-imidazol-4-yl)-1-oxoisoindolin-2-yl)piperidine-2,6-dione]
C (C = 0-10% remaining) | < 25 | < 25 | F (F = >75-100% remaining) | Cn1c(C2CCCCC2)nc(-c2ccc3c(c2)CN(C2CCC(=O)NC2=O)C3=O)c1-c1ccccc1 (stereo not drawn) [Example 49, 3-(5-(2-Cyclohexyl-1-methyl-5-phenyl-1H-imidazol-4-yl)-1-oxoisoindolin-2-yl)piperidine-2,6-dione]
C (C = 0-10% remaining) | < 25 | ≥ 25 | F (F = >75-100% remaining) | Cn1c(C2CCOCC2)nc(-c2ccc3c(c2)CN(C2CCC(=O)NC2=O)C3=O)c1-c1ccccc1 (stereo not drawn) [Example 50, 3-(5-(1-methyl-5-phenyl-2-(tetrahydro-2H-pyran-4-yl)-1H-imidazol-4-yl)-1-oxoisoindolin-2-yl)piperidine-2,6-dione]
C (C = 0-10% remaining) | < 25 | ≥ 25 | E (E = >25-75% remaining) | O=C1CCC(N2Cc3cc(-c4nc(C(F)(F)F)[nH]c4-c4ccccc4)ccc3C2=O)C(=O)N1 (stereo not drawn) [Example 53, 3-(1-Oxo-5-(5-phenyl-2-(trifluoromethyl)-1H-imidazol-4-yl)isoindolin-2-yl)piperidine-2,6-dione]
C (C = 0-10% remaining) | < 25 | ≥ 25 | F (F = >75-100% remaining) | O=C1CCC(N2Cc3cc(-c4c[nH]c(-c5ccccc5)n4)ccc3C2=O)C(=O)N1 (stereo not drawn) [Example 54, 3-(1-Oxo-5-(2-phenyl-1H-imidazol-4-yl)isoindolin-2-yl)piperidine-2,6-dione]
E (E = >25-75% remaining) | < 25 | ≥ 25 | F (F = >75-100% remaining) | Cn1ncc(-c2ccc3c(c2)CN(C2CCC(=O)NC2=O)C3=O)c1-c1cccc(N2CCCC2)c1 (stereo not drawn) [Example 55]
E (E = >25-75% remaining) | < 25 | ≥ 25 | F (F = >75-100% remaining) | Cn1ncc(-c2ccc3c(c2)CN(C2CCC(=O)NC2=O)C3=O)c1-c1cccc(C(F)F)c1 (stereo not drawn) [Example 59]
E (E = >25-75% remaining) | < 25 | ≥ 25 | F (F = >75-100% remaining) | CC(C)c1ccccc1-c1c(-c2ccc3c(c2)CN(C2CCC(=O)NC2=O)C3=O)cnn1C (stereo not drawn) [Example 60]
